Experimental findings from patent US9012652B2, “Processes for producing cycloalkylcarboxamido-pyridine benzoic acids” (Vertex Pharmaceuticals Incorporated, priority 0208, dated 2015) are described below.

SMILES strings stand for the structures. Structures can show the parent of a compound that is named as a salt.

This data set in a line: solubility in water. The following applies: stated in words in the process description. The class given is physicochemical.

Consider `Cc1ccc(NC(=O)C2(c3ccc4c(c3)OC(F)(F)O4)CC2)nc1-c1cccc(C(=O)O)c1` [compound 9, 3-(6-(1-(2,2-difluorobenzo[d][1,3]dioxol-5-yl)cyclopropanecarboxamido)-3-methylpyridin-2-yl)benzoic acid.HCL salt], for which the solubility in water entry is on record as “sparingly soluble”.
